According to patent US20040253243A1, “Aptamer therapeutics useful in ocular pharmacotherapy” (priority 2003, published 2004):
Read-outs that look alike come from different tables or passages of the source.

Experiments:
[1] = mouse, in vivo; for AUC / MRT / tmax / t½: 10 mg/kg
[2] = test system: PDGF AB and BB; assay: PDGF binding (Kd); parameters: species or system human
[3] = rabbit, in vivo
Experimental: Studies were performed in the Dutch-belted rabbit model using […]. Aptamers were administered at a dose level of 1.0 mg/eye, bilaterally via […] intravitreal injection. Samples from the aqueous humor, vitreous humor and plasma were taken before administration of the aptamer and a 0.25 h, 6 h, 24 h, 72 h, 7d, […], and 21d. FIGS. 22A, 22B and 22C show the vitreous humor and/or plasma concentration of each aptamer through 25 days post administration.
The results shown in FIG. 22A were obtained using noncompartmental (NCA) analysis. The volume of rabbit vitreous humor was approximately 1.0-1.5 ml.

[4] = molecular target: T1, PDGF (Homo sapiens, UniProt P01127); assay: Cellular IC50 of anti-PDGF aptamer; type: cell-based
[5] = rabbit, in vivo; remark: listed apart in the source
[6] = molecular target: rat PDGF (Rattus norvegicus, UniProt Q05028); assay: Rat PDGF binding; details: FIG. 14A
[7] = molecular target: PDGF AA isoform (Homo sapiens, UniProt P04085); assay: PDGF AA isoform binding; details: FIG. 13A
[8] = Animal models for glomerulonephritis, restenosis, cancer and pulmonary hypertension; type: in vivo
[9] = molecular target: T1, PDGF; details: iv
[10] = test system: PDGF-induced 3T3 cell proliferation; assay: PDGF-induced 3T3 cell proliferation; type: cell-based; details: compared with anti-PDGF antibody (Upstate/Cell Signaling Solutions)
[11] = test system: retinal pigmented epithelial (RPE) cells; assay: RPE cell migration with PDGF; type: cell-based; details: 100 ng/ml PDGF
From the text: The graphs presented in FIG. 15E and 15F show the increasing effect of PDGF concentration on RPE cell migration.

[12] = in vivo, iv

Sequence of PDGF AB and BB (P01127 82-190 limits assumed): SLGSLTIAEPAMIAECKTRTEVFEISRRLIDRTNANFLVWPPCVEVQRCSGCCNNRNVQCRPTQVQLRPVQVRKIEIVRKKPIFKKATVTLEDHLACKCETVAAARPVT
T1 sequence (P01127 82-190 limits assumed): as above
Sequence of rat PDGF (Q05028 74-182 limits assumed): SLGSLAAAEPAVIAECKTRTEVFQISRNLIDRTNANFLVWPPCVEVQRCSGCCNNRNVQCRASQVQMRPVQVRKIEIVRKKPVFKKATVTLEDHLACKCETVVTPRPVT

For “5′-[PEG40K]-NH2-dCdAdGdGdCfUdAfCmG-PEG-dCdGTdAmGdAmGdCdAfUfCmA-PEG-TdGdATfCfCfUmG-3T-3′ [ARC127]”, the bioavailability ([1]; ip) was 62.5%, the “AUC” value ([1]; ip) was 143.6055 µM·h and the “MRT” value ([1]; ip) was 11.23 h. For the same substance, the “tmax” value ([1]; ip) was 8 h, the “t½” value ([1]; ip) was 7.86 h and the “AUC” value ([1]; iv) was 229.6868 µM·h. The “MRT” value ([1]; iv) was 6.57 h, the “tmax” value ([1]; iv) was 2 h and the “t½” value ([1]; iv) was 8.60 h. For the same substance, the bioavailability ([1]; sc) was 24.0%, the “AUC” value ([1]; sc) was 55.0309 µM·h and the “MRT” value ([1]; sc) was 16.63 h. For the same substance, the “tmax” value ([1]; sc) was 8 h, the “t½” value ([1]; sc) was 9.18 h and the “recognition of BB and AB isoforms of PDGF” value ([2]; FIGS. 13A and 13B) was “recognizes the BB and AB isoforms of PDGF”. The Kd ([2]; anti-PDGF aptamer, isoform not stated, read-out: dissociation constant (Kd)) was 0.1 nM, the Kd ([2]; read-out: Kd, PDGF AB and BB) was 0.1 nM and the Cl [3] was 0.29 mL?d^−1. The Cmax [3] was about 100 µM, the Vss [3] was 1.42 mL and the “half life in the vitreous humor” value [3] was 84 h. It also gave a t1/2 [3] of 92.9 h, a tmax [3] of 0.25 h and an IC50 [4] of 2 nM. For the same substance, the “half life (intravitreal)” value [5] was 92.9 h, the “affinity for human and rat PDGFs” value [6] was “equivalent affinity” and the “recognition of AA isoform of PDGF” value [7] was “not the AA isoform alone”. For the same substance, the “efficacy in animal models” value [8] was “efficacy in the animal models for glomerulonephritis, restenosis, cancer and pulmonary hypertension”, the “duration of measurable activity in vivo” value [9] was 48 h and the “ability to block PDGF-induced 3T3 cell proliferation” value [10] was “comparable to the ability of an anti-PDGF antibody”. For the same substance, the “blocking of RPE cell migration” value [11] was “specifically blocks migration of retinal pigmented epithelial (RPE) cells” and the systemic half life [12] was 6 to 12 h.
